The target in test [1] is T1, SH2 domain-containing protein 1A (Homo sapiens) (UniProt O60880).
T1 sequence (whole entry): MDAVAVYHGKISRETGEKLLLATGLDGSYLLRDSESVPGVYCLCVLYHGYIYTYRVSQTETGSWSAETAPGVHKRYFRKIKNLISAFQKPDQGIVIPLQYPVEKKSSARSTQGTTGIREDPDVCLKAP
Nature of the test: Inhibition of recombinant 6-His-tagged SLAM associated protein SH2 domain (unknown origin) expressed in Escherichia coli BL21(DE3) binding to biotinyl-KKSLTIpYAQVQK-NH2 attached to NeutrAvidin-coated plates using p-nitrophenyl phosphate as substrate at 10 uM after 1 hr relative to control.

Test [2] deals with T1, SH2 domain-containing protein 1A (Homo sapiens). Nature of the test: Inhibition of recombinant 6-His-tagged SLAM associated protein SH2 domain (unknown origin) expressed in Escherichia coli BL21(DE3) binding to biotinyl-KKSLTIpYAQVQK-NH2 attached to NeutrAvidin-coated plates using p-nitrophenyl phosphate as substrate at 100 uM after 1 hr.

Activity calls are given as the source filed them. The rule behind the calls is not given here.

On to `COC(=O)[C@H](Cc1ccc2c(c1)COP(=O)(O)O2)NC(=O)[C@@H](NC(=O)OCC1c2ccccc2-c2ccccc21)[C@@H](C)O`, for which, in test [1], the fold change (FC) was found to be 0.82. The inhibition entry in test [2] was “Active”.

Turning to `COC(=O)[C@H](Cc1ccc2c(c1)COP(=O)(O)O2)NC(=O)[C@H](CCC(N)=O)NC(=O)OCC1c2ccccc2-c2ccccc21`, the fold change (FC) in test [1] turned out to be 1.09. Also, in test [2], the inhibition result was “Active”.

In the case of `COC(=O)[C@H](Cc1ccc2c(c1)COP(=O)(O)O2)NC(=O)[C@H](Cc1ccccc1)NC(=O)OCC1c2ccccc2-c2ccccc21`, the fold change (FC) in test [1] is 0.84. In addition, the inhibition result in test [2] was “Active”.

Take `COC(=O)[C@H](Cc1ccc2c(c1)COP(=O)(O)O2)NC(=O)[C@H](CCC(=O)OC(C)(C)C)NC(=O)OCC1c2ccccc2-c2ccccc21`: the fold change (FC) in test [1] worked out at 1.1. Moreover, the inhibition result in test [2] was “Active”.

Turning to `COC(=O)[C@H](Cc1ccc2c(c1)COP(=O)(O)O2)NC(=O)[C@H](C)NC(=O)OCC1c2ccccc2-c2ccccc21`, the fold change (FC) in test [1] is 0.89. Besides, the inhibition result in test [2] was “Active”.

On to `COC(=O)[C@H](Cc1ccc2c(c1)COP(=O)(O)O2)NC(=O)[C@H](CCC(=O)NC(c1ccccc1)(c1ccccc1)c1ccccc1)NC(=O)OCC1c2ccccc2-c2ccccc21`, for which the fold change (FC) in test [1] was found to be 1.11. Moreover, in test [2], the inhibition result was “Active”.

Turning to `COC(=O)[C@H](Cc1ccc2c(c1)COP(=O)(O)O2)NC(=O)[C@H](CO)NC(=O)OCC1c2ccccc2-c2ccccc21`, in test [1], the fold change (FC) came out at 1.13. The inhibition entry in test [2] was “Active”.

As for `CC(C)(C)OC(=O)n1cc(C[C@H](NC(=O)[C@H](Cc2ccc3c(c2)COP(=O)(O)O3)NC(=O)OCC2c3ccccc3-c3ccccc32)C(N)=O)c2ccccc21`, the fold change (FC) in test [1] was found to be 1.33. Further, the inhibition entry in test [2] is “Active”.

Turning to `COC(=O)[C@H](Cc1ccc2c(c1)COP(=O)(O)O2)NC(=O)[C@H](Cc1ccc2c(c1)COP(=O)(O)O2)NC(=O)OCC1c2ccccc2-c2ccccc21`, the fold change (FC) in test [1] is 1.09. For the same molecule, the inhibition result in test [2] was “Active”.

As to `C[C@@H](O)[C@H](NC(=O)[C@H](Cc1ccc2c(c1)COP(=O)(O)O2)NC(=O)OCC1c2ccccc2-c2ccccc21)C(N)=O`, the fold change (FC) in test [1] was 1.22. The inhibition entry in test [2] was “Active”.

Consider `COC(=O)[C@H](Cc1ccc2c(c1)COP(=O)(O)O2)NC(=O)[C@H](COC(C)(C)C)NC(=O)OCC1c2ccccc2-c2ccccc21`, for which the fold change (FC) in test [1] came out at 0.85. For the same molecule, the inhibition entry in test [2] is “Active”.

Consider `NCCCC[C@H](NC(=O)[C@H](Cc1ccc2c(c1)COP(=O)(O)O2)NC(=O)OCC1c2ccccc2-c2ccccc21)C(N)=O`, for which, in test [1], the fold change (FC) was 1.22. In addition, the inhibition entry in test [2] is “Active”.

For the molecule `CC[C@H](C)[C@H](NC(=O)OCC1c2ccccc2-c2ccccc21)C(=O)N[C@@H](Cc1ccc2c(c1)COP(=O)(O)O2)C(=O)OC`, the fold change (FC) in test [1] was 1.51. Further, the inhibition result in test [2] was “Active”.

For `CC[C@H](C)[C@H](NC(=O)[C@H](Cc1ccc2c(c1)COP(=O)(O)O2)NC(=O)OCC1c2ccccc2-c2ccccc21)C(N)=O`, in test [1], the fold change (FC) came out at 1.05. For the same molecule, in test [2], the inhibition entry was “Active”.

As to `COC(=O)[C@H](Cc1ccc2c(c1)COP(=O)(O)O2)NC(=O)[C@H](Cc1ccc(OC(C)(C)C)cc1)NC(=O)OCC1c2ccccc2-c2ccccc21`, in test [1], the fold change (FC) is 0.96. For the same molecule, the inhibition entry in test [2] was “Active”.

For `COC(=O)[C@H](Cc1ccc2c(c1)COP(=O)(O)O2)NC(=O)[C@H](Cc1cn(C(=O)OC(C)(C)C)c2ccccc12)NC(=O)OCC1c2ccccc2-c2ccccc21`, the fold change (FC) in test [1] came out at 1.2. For the same molecule, in test [2], the inhibition entry is “Active”.

For the molecule `CC(C)[C@H](NC(=O)[C@H](Cc1ccc2c(c1)COP(=O)(O)O2)NC(=O)OCC1c2ccccc2-c2ccccc21)C(N)=O`, in test [1], the fold change (FC) was 1. The inhibition entry in test [2] was “Active”.

Consider `COC(=O)[C@H](Cc1ccc2c(c1)COP(=O)(O)O2)NC(=O)[C@H](CCCCN)NC(=O)OCC1c2ccccc2-c2ccccc21`, for which, in test [1], the fold change (FC) is 1.05. In test [2], the inhibition entry was “Active”.

Turning to `CC(C)(C)OC(=O)CC[C@H](NC(=O)[C@H](Cc1ccc2c(c1)COP(=O)(O)O2)NC(=O)OCC1c2ccccc2-c2ccccc21)C(N)=O`, in test [1], the fold change (FC) came out at 1.47. Further, the inhibition result in test [2] was “Active”.

Consider `NC(=O)CC[C@H](NC(=O)[C@H](Cc1ccc2c(c1)COP(=O)(O)O2)NC(=O)OCC1c2ccccc2-c2ccccc21)C(N)=O`, for which the fold change (FC) in test [1] is 0.99. Moreover, in test [2], the inhibition entry is “Active”.

For the molecule `NC(=O)CNC(=O)[C@H](Cc1ccc2c(c1)COP(=O)(O)O2)NC(=O)OCC1c2ccccc2-c2ccccc21`, the fold change (FC) in test [1] was determined as 1.07. In addition, the inhibition result in test [2] was “Active”.

Turning to `COC(=O)[C@H](Cc1ccc2c(c1)COP(=O)(O)O2)NC(=O)[C@H](Cc1ccc(O)cc1)NC(=O)OCC1c2ccccc2-c2ccccc21`, the fold change (FC) in test [1] came to 1.05. For the same molecule, the inhibition result in test [2] was “Active”.

Take `NC(=O)[C@H](Cc1c[nH]c2ccccc12)NC(=O)[C@H](Cc1ccc2c(c1)COP(=O)(O)O2)NC(=O)OCC1c2ccccc2-c2ccccc21`: the fold change (FC) in test [1] amounted to 1.36. Also, the inhibition result in test [2] is “Active”.

As to `NC(=O)C[C@H](NC(=O)[C@H](Cc1ccc2c(c1)COP(=O)(O)O2)NC(=O)OCC1c2ccccc2-c2ccccc21)C(N)=O`, the fold change (FC) in test [1] came to 1.29. In addition, in test [2], the inhibition result is “Active”.

`NC(=O)[C@H](CCC(=O)O)NC(=O)[C@H](Cc1ccc2c(c1)COP(=O)(O)O2)NC(=O)OCC1c2ccccc2-c2ccccc21`: the fold change (FC) in test [1] came out at 1.31. The inhibition entry in test [2] is “Active”.

Take `COC(=O)[C@H](Cc1ccc2c(c1)COP(=O)(O)O2)NC(=O)[C@H](Cc1cn(C(c2ccccc2)(c2ccccc2)c2ccccc2)cn1)NC(=O)OCC1c2ccccc2-c2ccccc21`: in test [1], the fold change (FC) stood at 1.06. Moreover, the inhibition entry in test [2] is “Active”.

For `COC(=O)[C@H](Cc1ccc2c(c1)COP(=O)(O)O2)NC(=O)[C@H](CC(=O)O)NC(=O)OCC1c2ccccc2-c2ccccc21`, the fold change (FC) in test [1] worked out at 0.84. The inhibition result in test [2] is “Active”.

Consider `Cc1c(C)c(S(=O)(=O)NC(=N)NCCC[C@H](NC(=O)[C@H](Cc2ccc3c(c2)COP(=O)(O)O3)NC(=O)OCC2c3ccccc3-c3ccccc32)C(N)=O)c(C)c2c1OC(C)(C)C2`, for which the fold change (FC) in test [1] came to 0.94. Further, in test [2], the inhibition result was “Active”.

Turning to `NC(=O)[C@H](CO)NC(=O)[C@H](Cc1ccc2c(c1)COP(=O)(O)O2)NC(=O)OCC1c2ccccc2-c2ccccc21`, in test [1], the fold change (FC) is 0.9. The inhibition entry in test [2] was “Active”.

With `COC(=O)[C@H](Cc1ccc2c(c1)COP(=O)(O)O2)NC(=O)[C@H](CCCNC(=N)NS(=O)(=O)c1c(C)c(C)c2c(c1C)CC(C)(C)O2)NC(=O)OCC1c2ccccc2-c2ccccc21`, in test [1], the fold change (FC) came to 0.75. Besides, the inhibition entry in test [2] was “Active”.

For `CC(C)(C)OC[C@H](NC(=O)[C@H](Cc1ccc2c(c1)COP(=O)(O)O2)NC(=O)OCC1c2ccccc2-c2ccccc21)C(N)=O`, the fold change (FC) in test [1] came to 1.27. For the same molecule, the inhibition result in test [2] is “Active”.

`C[C@H](NC(=O)[C@H](Cc1ccc2c(c1)COP(=O)(O)O2)NC(=O)OCC1c2ccccc2-c2ccccc21)C(N)=O`: in test [1], the fold change (FC) came to 1.09. The inhibition entry in test [2] was “Active”.
